Test results reported in patent US20240117431A1, “STEM-CELL BASED BIOMARKER DISCOVERY” (THE REGENTS OF THE UNIVERSITY OF CALIFORNIA, priority 2020, published 2024).

Assays:
UPRT(+)-microglia brains = test: In vivo labeling of brain RNA in mice transplanted with UPRT-expressing human microglia, biotin dot blot; settings: IP close to 150 mg/kg, 24-48 hours, FIG. 14
Description: 5-vinyl-uracil (Alfa Aesar #4437903) was prepared in sterile conditions at 4 times the concentration in 100% DMSO, then diluted to 25% DMSO by adding corn oil to a final concentration of 500 mM. The mixture was heated to 37° C. for […] until homogenous. Mice are weighed before intraperitoneal injection (IP) injection to ensure close to 150 mg/kg are injected per treatment. For an (˜20 g) adult mouse typically 60-70 μl are IP injected per treatment. Mice are monitored for signs of distress. After 24-48 hours of treatment, mice were sacrificed and brains were immediately placed into 2 ml of RNAlater and left in 4° C. for 3-5 days. After removing brains from RNAlater, they were homogenized with RNAse-free 1.4 mm steel beads (Next Advance SSB14B-RNA) for 60 seconds and centrifuged at 4° C. for 5 min, maximum speed to separate the fatty layer. The bottom layer is collected, homogenized with 200 ul chloroform and centrifuged for 20 minutes, at 4° C. The aqueous layer is collected and 500 ul isopropanol added. After centrifugation for 30 minutes 4° C., the RNA pellet is washed in 70% Ethanol twice. After removing ethanol, the RNA pellet is resuspended in nuclease-free water and nanodrop to determine the concentration. From each sample, 15 μg of RNA was subjected in tetrazine-biotin ligation at 37° C., 500 RPM for 3 hours. The biotinylated RNA was purified with RNA Zymo Clean and Concentrator #5 and eluted with nuclease-free water. 2 μg of purified RNA was spotted onto a N+ Hybond membrane and UV-crosslinked at 254 nm (120,000 uJ). Membrane is blocked in blocking buffer (0.12 M NaCl, 0.016 M Na2HPO4, 0.008 M NaH2PO4, 0.17 M SDS) and followed by incubation with high sensitivity streptavidin-HRP (Fisher Scientific, Cat #: P121130) at 1:5000 dilution in blocking buffer for 5 minutes. The membrane was washed twice in a Wash A buffer (1:10 dilution of blocking buffer) and twice in Wash B buffer (Tris-saline buffer). It was then incubated for 1-5 min. in ECL Chemiluminescent Substrate (Fisher Scientific, Cat #: P132106) and imaged on a ChemiDoc MP imaging system (Bio-Rad). […]

[1] = system: 3×MT-TgUPRT transfected HEK293 cells; test: RNA fluorescence imaging via IEDDA (confocal microscopy); type: cell-based, Toxoplasma gondii; settings: 1 mM, 24 hours, tetrazene biotin + fluorophore-streptavidin, FIG. 10A
Description: RNA fluorescence imaging via IEDDA: The cell culture dishes and glass coverslips were coated with poly-D-lysine (10 μg/ml) for 24 h at 37° C. and washed three times with autoclaved water to remove the excessive amount of poly-D lysine. HEK293 cells were seeded on glass coverslips at 2.5×105 in a 6-well plate. Twenty-four hours post-seeding, cells were transiently transfected with 1 μg WT- or MT-TgUPRT using jetPRIME transfection reagent according to the manufacturers manual (Polyplus Transfection, France). Twenty-four hours post-transfection, cells were treated with DMSO or 1 mM 5VU for 24 hours. After labeling, cells were washed 3× with DPBS, fixed and permeabilized for 30 min at room temperature with 3.7% paraformaldehyde and 0.15% Triton-X100. Cells were then washed three times (7 min/each) on orbital shaker with DPBS, blocked with Streptavidin (2 mg/mL in DPBS) for 30 minutes and followed with BSA (1 mg/ml in DPBS, 0.45% NaCl and 0.025% NaN3) for 30 min at room temperature, washed 2× with DPBS. Blocked cells were incubated with 200-500 μL of 1 mM biotin-tetrazine solution in water for 3 hours at 37° C. […] Slides were imaged via fluorescence confocal microscopy using a 63× oil immersion objective on a […] Carl Zeiss microscope. […]

C=Cc1c[nH]c(=O)[nH]c1=O [compound 2, 5-Vinylpyrimidine-2,4(1H,3H)-dione]
incorporation into brain RNA, UPRT(+)-microglia transplanted (UPRT(+)-microglia brains): observable signals
incorporation into brain RNA, UPRT(−)-microglia brains (UPRT(+)-microglia brains): significant biotin signal was not observed
fluorescent signal of labeled RNA [1]: fluorescent signal was observed only in the presence of both 2 and 3×MT-TgUPRT transfected cells
